Assay results from patent US20260258084A1, “New Peptides as Selective IL-23 Receptor Antagonists” (Sanofi, priority 2022, published 2026).
≈ marks a conversion by molar mass, not a printed value. Read-outs that look alike come from different tables or passages of the source. Starred links: 1 amine or outer side, 2 acyl side, 3 side chain; linkers in the order of their positions; H or OH if unused. Positions of bridges follow the written chain, without caps; N, C: chain ends. Non-standard residues stand in square brackets, D forms with d. Residues, ends and D or L forms follow the SMILES beside them. *: point of attachment. X3 = CN(CCCCC(=O)N[C@@H](CS[*:2])C(=O)[*:1])[*:3]; Trp(7-Me) = Cc1cccc2c(C[C@H](N)C(=O)O)c[nH]c12; X1 = O=C(CCCCN[*:3])N[C@@H](CS[*:2])C(=O)[*:1]; 2Nal = N[C@@H](Cc1ccc2ccccc2c1)C(=O)O; AEF = NCCOc1ccc(C[C@H](N)C(=O)O)cc1; 3Pal = N[C@@H](Cc1cccnc1)C(=O)O; αMeL = CC(C)C[C@](C)(N)C(=O)O; Thp = NC1(C(=O)O)CCOCC1; Me2NCH2CH2 = CN(C)CC*; Aib = CC(C)(N)C(=O)O; Ahx = NCCCCCC(=O)O; Ava = NCCCCC(=O)O; βAla = NCCC(=O)O; Sar = CNCC(=O)O

Key:
[1] = target: T1, human interleukin-23 receptor (recombinant human IL-23R-Fc chimera) (Homo sapiens, UniProt Q5VWK5); assay: Human ELISA IL23/IL23R (assay for specific human IL23R antagonists); type: binding; settings: Table 10; read-out: Human ELISA IL23/IL23R IC50
T1 construct: Fc (IgG Fc fusion)
In short: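 Plates coated overnight at 4 °C with human IL23 ([…]), blocked, then serially diluted peptides added with recombinant human IL-23R-Fc (0.1 μg/ml final) for 60 min at room temperature. Bound receptor detected with anti-human IgG1-HRP and fluorogenic peroxidase substrate.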

[2] = system: IL-23 induced STAT3 signaling in HEK-Blue™ IL-23 cells; assay: IL-23 induced STAT3 signaling in HEK-Blue IL-23 cells (SEAP reporter); type: cell-based; settings: human IL23 0.25 ng/ml, read-out: pSTAT3
In short: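 HEK-Blue IL-23 cells (10,000/well) pre-incubated 60 min at 37 °C with serially diluted peptides, then stimulated overnight with human IL-23 (0.25 ng/ml final). STAT3-driven SEAP in supernatant detected with QUANTI-Blue after 45 min at RT (OD 620-655 nm); dose-response curves fitted.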

[3] = Solubility testing of peptides at different pH; type: physicochemical; settings: target concentration 1 mg/ml, 2 hours agitation
In short: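 Solid obtained by drying down DMSO stock was taken up at 1 mg/mL in 50 mM HCl pH 1.2 or 50 mM phosphate pH 6.5, 7.4 or 9.0, agitated gently for 2 h, then filtered (0.45 μm). Solubility by UPLC-UV peak area against a DMSO reference standard curve, corrected for extinction coefficients.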

[4] = Chemical stability assessment of peptides (relative purity loss); type: physicochemical; settings: 24 hours at 37° C.; for Chemical stability (relative purity loss) Buffer pH 1.2: 50 mM HCl pH 1.2 + acetonitrile (1:1); for Chemical stability (relative purity loss) Buffer pH 6.5: 50 mM phosphate buffer pH 6.5 + acetonitrile (1:1); for Chemical stability (relative purity loss) Buffer pH 7.4: 50 mM phosphate buffer pH 7.4 + acetonitrile (1:1)
In short: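 Peptide solutions at 1 mg/ml (purity-corrected) in 1:1 acetonitrile with 50 mM HCl pH 1.2, or 50 mM phosphate pH 6.5 or pH 7.4, held 24 hours at 2° C. and 37° C. Supernatants analysed by UHPLC-UV; relative purity loss taken as percent drop in peak-area purity from 0 to 24 hours at 37° C.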

[5] = system: T2, Pepsin; assay: Protease stability in simulated gastric fluid (Pepsin-SGF, FaSSGF); type: in vitro ADME; settings: simulated gastric fluid with pepsin (Pepsin-SGF), 60 min, 1 μM peptide, 37° C., read-out: FaSSGF 60 (min), remaining percent of peptide
T2 construct: purchased Merck Millipore
In short: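 Peptides at 1 μM final in pepsin-containing SGF at 37° C, sampled at 0, 60, 120 and 240 min, quenched with ethanol (0.1% HCOOH). Analysed by LCMS/MS; percent remaining from peak area relative to time 0 (set to 100%).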

[6] = 50 mM HCl buffer, 50 mM HCl pH 1.2, read-out: Solubility Buffer pH 1.2
[7] = 50 mM phosphate buffer pH 6.5, read-out: Solubility Buffer pH 6.5
[8] = 50 mM phosphate buffer pH 7.4, read-out: Solubility Buffer pH 7.4
[9] = 50 mM phosphate buffer pH 9.0, read-out: Solubility Buffer pH 9.0

SMILES	IC50 [1] [nM]	solubility at 2 h [3, 6] [µg/mL]	solubility at 2 h [3, 7] [µg/mL]	solubility at 2 h [3, 8] [µg/mL]	solubility at 2 h [3, 9] [µg/mL]	Chemical stability (relative purity loss) Buffer pH 1.2 [4] [%]	Chemical stability (relative purity loss) Buffer pH 6.5 [4] [%]	Chemical stability (relative purity loss) Buffer pH 7.4 [4] [%]	remaining at 1 h, 1 µM [5] [%]	IC50 [2] [nM]
CC(=O)N[C@H]1CCCCNC(=O)[C@@H]2CSSC[C@H](NC(=O)[C@H](CCC(N)=O)NC(=O)[C@H](Cc3c[nH]c4ccccc34)NC1=O)C(=O)N[C@@H](Cc1ccc(OCCN)cc1)C(=O)N[C@@H](Cc1ccc3ccccc3c1)C(=O)N[C@@](C)(CC(C)C)C(=O)N[C@H](C(=O)N[C@@H](C)C(=O)NCC(N)=O)CCC(=O)N(C)CCCCC(=O)N2 [compound 18] (Ac-KWQC[AEF][2Nal][αMeL]EAG-NH2; linker 1-4-8 via X3)	0.71	10 (≈ 6.29 µM)	< 10	< 10	< 10	11.4	0.1	0.0	60	69.5
C[C@@H](O)[C@@H]1NC(=O)[C@H](CC(N)=O)NC(=O)[C@@H]2CSSC[C@H](NC(=O)[C@H](CCC(N)=O)NC(=O)[C@H](Cc3c[nH]c4ccccc34)NC1=O)C(=O)N[C@@H](Cc1ccc(OCCN)cc1)C(=O)N[C@@H](Cc1ccc3ccccc3c1)C(=O)NC(C)(C)C(=O)N[C@H](C(=O)N[C@@H](CC(N)=O)C(=O)NCC(N)=O)CC(=O)NCCCCCC(=O)N2 [compound 9] ([Ahx]CNTWQC[AEF][2Nal][Aib]DNG-NH2; disulfide 2-7; lactam N-11)	0.44	≥ 1040	≥ 1060	≥ 960	750 (≈ 463 µM)	13.8	5.5	19.8	2	65
Cc1cccc2c(C[C@@H]3NC(=O)[C@H]([C@@H](C)O)NC(=O)[C@H](CC(N)=O)NC(=O)[C@@H]4CSSC[C@H](NC(=O)[C@H](CC(C)C)NC3=O)C(=O)N[C@@H](Cc3ccc(OCCN(C)C)cc3)C(=O)N[C@@H](Cc3ccc5ccccc5c3)C(=O)NC3(CCOCC3)C(=O)N[C@H](C(=O)N[C@@H](CC(N)=O)C(=O)N[C@@H](Cc3cccnc3)C(=O)N(C)CC(N)=O)CCC(=O)NCCCCC(=O)N4)c[nH]c12 [compound 24] ([Ava]CNT[Trp(7-Me)]LCY(Me2NCH2CH2)[2Nal][Thp]EN[3Pal][Sar]-NH2; disulfide 2-7; lactam N-11)	0.4	≥ 1020	≥ 1100	≥ 1000	300 (≈ 162 µM)	7.2	0.0	0.4	84	0.59
CC(=O)NCCCC[C@@H]1NC(=O)[C@H](Cc2c[nH]c3c(C)cccc23)NC(=O)[C@H]([C@@H](C)O)NC(=O)[C@H](CC(N)=O)NC(=O)[C@@H]2CSSC[C@H](NC1=O)C(=O)N[C@@H](Cc1ccc(OCCN(C)C)cc1)C(=O)N[C@@H](Cc1ccc3ccccc3c1)C(=O)NC1(CCOCC1)C(=O)N[C@H](C(=O)N[C@@H](CC(N)=O)C(=O)N[C@@H](Cc1cccnc1)C(N)=O)CCC(=O)NCCCCC(=O)N2 [compound 51] ([Ava]CNT[Trp(7-Me)]K(Ac)CY(Me2NCH2CH2)[2Nal][Thp]EN[3Pal]-NH2; disulfide 2-7; lactam N-11)	0.19	≥ 1020	≥ 930	430 (≈ 234 µM)	100 (≈ 54.4 µM)	17.1	0.2	0.7	94	0.05

Further molecules by falling IC50 [1], results first:

IC50 [1] [nM]	solubility at 2 h [3, 6] [µg/mL]	solubility at 2 h [3, 7] [µg/mL]	solubility at 2 h [3, 8] [µg/mL]	solubility at 2 h [3, 9] [µg/mL]	Chemical stability (relative purity loss) Buffer pH 1.2 [4] [%]	Chemical stability (relative purity loss) Buffer pH 6.5 [4] [%]	Chemical stability (relative purity loss) Buffer pH 7.4 [4] [%]	remaining at 1 h, 1 µM [5] [%]	SMILES	IC50 [2] [nM]
0.59	310 (≈ 188 µM)	290 (≈ 176 µM)	190 (≈ 115 µM)	110 (≈ 66.8 µM)	24.5	1.1	3.6	53	CC(=O)N[C@H]1CCCCNC(=O)[C@@H]2CSSC[C@H](NC(=O)[C@H](CCC(N)=O)NC(=O)[C@H](Cc3c[nH]c4ccccc34)NC1=O)C(=O)N[C@@H](Cc1ccc(OCCN)cc1)C(=O)N[C@@H](Cc1ccc3ccccc3c1)C(=O)NC(C)(C)C(=O)N[C@H](C(=O)N[C@@H](CC(N)=O)C(=O)N[C@@H](CC(N)=O)C(N)=O)CCC(=O)N(C)CCCCC(=O)N2 [compound 12] (Ac-KWQC[AEF][2Nal][Aib]ENN-NH2; linker 1-4-8 via X3)	27.9
0.56	≥ 1000	≥ 890	640 (≈ 386 µM)	130 (≈ 78.4 µM)	5.9	0.5	0.1	100	CC(=O)N[C@H]1CCCCNC(=O)[C@@H]2CSSC[C@H](NC(=O)[C@H](CCC(N)=O)NC(=O)[C@H](Cc3c[nH]c4ccccc34)NC1=O)C(=O)N[C@@H](Cc1ccc(OCCN(C)C)cc1)C(=O)N[C@@H](Cc1ccc3ccccc3c1)C(=O)NC1(CCOCC1)C(=O)N[C@H](C(=O)N[C@@H](C)C(=O)N[C@H](CC(C)C)C(N)=O)CCC(=O)NCCCCC(=O)N2 [compound 33] (Ac-KWQCY(Me2NCH2CH2)[2Nal][Thp]EA[dL]-NH2; linker 1-4-8 via X1)	53.8
0.36	50 (≈ 29.6 µM)	30 (≈ 17.8 µM)	20 (≈ 11.8 µM)	< 10	25.8	0.6	0.1	72	CC(=O)N[C@H]1CCCCNC(=O)[C@@H]2CSSC[C@H](NC(=O)[C@H](CCC(N)=O)NC(=O)[C@H](Cc3c[nH]c4ccccc34)NC1=O)C(=O)N[C@@H](Cc1ccc(OCCN)cc1)C(=O)N[C@@H](Cc1ccc3ccccc3c1)C(=O)N[C@@](C)(CC(C)C)C(=O)N[C@H](C(=O)N[C@@H](CC(N)=O)C(=O)N[C@@H](CC(N)=O)C(N)=O)CCC(=O)N(C)CCCCC(=O)N2 [compound 14] (Ac-KWQC[AEF][2Nal][αMeL]ENN-NH2; linker 1-4-8 via X3)	18.7
0.33	≥ 1110	≥ 1090	≥ 1050	≥ 1040	11.6	1.2	1.4	100	CC(=O)NCCCC[C@@H]1NC(=O)[C@H](Cc2c[nH]c3c(C)cccc23)NC(=O)[C@H]([C@@H](C)O)NC(=O)[C@H](CC(N)=O)NC(=O)[C@@H]2CSSC[C@H](NC1=O)C(=O)N[C@@H](Cc1ccc(OCCN(C)C)cc1)C(=O)N[C@@H](Cc1ccc3ccccc3c1)C(=O)NC1(CCOCC1)C(=O)N[C@H](C(=O)N[C@@H](CC(N)=O)C(=O)N[C@@H](Cc1c[nH]cn1)C(=O)NCCC(N)=O)CCC(=O)NCCCCC(=O)N2 [compound 49] ([Ava]CNT[Trp(7-Me)]K(Ac)CY(Me2NCH2CH2)[2Nal][Thp]ENH[βAla]-NH2; disulfide 2-7; lactam N-11)	1.79
